{"source": "patent US20100323442A1", "about": "“MODULATION OF THE PHOSPHATIDYLINOSITOL-3-KINASE PATHWAY IN THE DIFFERENTIATION OF HUMAN EMBRYONIC STEM CELLS” (priority 2006, published 2010)", "molecules": {"B1": {"name": "activin A: growth factor used at 100 ng/ml as differentiation factor (protein, UniProt P08476 311-426, looked up)", "Inhibin beta A chain": "GLECDGKVNICCKKQFFVSFKDIGWNDWIIAPSGYHANYCEGECPSHIAGTSGSSLSFHSTVINHYRMRGHSPFANLKSCCVPTKLRPMSMLYYDDGQNIIKKDIQNMIVEECGCS", "modifications": "Inhibin beta A chain", "notes": "growth factor used at 100 ng/ml as differentiation factor"}}, "key": {"[1]": {"tested_on": "Human ESCs (CyT203)", "assay": "Differentiation of hESCs in growth factor conditions, marker gene expression by QPCR", "assay_type": "cell-based", "conditions": "for expression of brachyury: RPMI, 0% FBS day 1, 0.2% day 2, 2% days 3-5, activin A 100 ng/ml at 36 and 48 hours; for differentiation of hESCs to initial cell fate, as indicated by marker expression: cultures lacking insulin, follistatin 100 ng/ml, noggin 200 ng/ml, BMP4 100 ng/ml, 5 days", "method": "Human ESCs (CyT203) were grown in growth media on a mouse fibroblast feeder layer. On the day differentiation began, cultures were washed once with phosphate buffered saline (PBS) and then placed into differentiation media. Differentiation media consisted of RPMI with penicillin/streptomycin and Glutamax containing 0% FBS on the first day, 0.2% v/v FBS on the second day and 2% v/v FBS on days 3-5. Growth factors were used at the following concentrations: activin A at 100 ng/ml, follistatin at 100 ng/ml, noggin at 200 ng/ml, BMP4 at 100 ng/ml, and SU5402 at 5 μM. Individual cultures received the same growth factor cocktail with or without the addition of 10 μg/ml human recombinant insulin for all 5 days of differentiation as indicated. Samples were taken at daily intervals for analysis of gene expression using QPCR to monitor the differentiation of the populations in response to the different growth factor treatments. At the conclusion of the treatment phase the cells were fixed in 4% paraformaldehyde for 15 min at room temperature and reacted with antibodies to SOX17 or PAX6. Human embryonic stem cells (CyT203) were grown in growth media on a mouse fibroblast feeder layer. On the day differentiation began, cultures were washed once with phosphate buffered saline (PBS) and then placed into differentiation media. Differentiation media consisted of RPMI with penicillin/streptomycin and Glutamax containing 0% FBS on the first day, 0.2% v/v FBS on the second day and 2% v/v FBS on days 3-5. Cultures were treated with SU5402 at 5 μM with or without the addition of human recombinant insulin at 10 μg/ml. Individual cultures received the same growth factor cocktail for all 5 days of differentiation as indicated. Samples were taken at daily intervals for analysis of gene expression using QPCR to monitor the differentiation of the populations in response to the different growth factor treatments. At the conclusion of the treatment phase the cells were fixed in 4% paraformaldehyde for 15 min at room temperature and reacted with antibodies to SOX17, OCT4 or PAX6."}, "[2]": {"tested_on": "Human ESCs (CyT203)", "assay": "Immunofluorescence of treated hESCs with antibodies to SOX17, OCT4 or PAX6", "assay_type": "cell-based", "method": "Human ESCs (CyT203) were grown in growth media on a mouse fibroblast feeder layer. On the day differentiation began, cultures were washed once with phosphate buffered saline (PBS) and then placed into differentiation media. Differentiation media consisted of RPMI with penicillin/streptomycin and Glutamax containing 0% FBS on the first day, 0.2% v/v FBS on the second day and 2% v/v FBS on days 3-5. Growth factors were used at the following concentrations: activin A at 100 ng/ml, follistatin at 100 ng/ml, noggin at 200 ng/ml, BMP4 at 100 ng/ml, and SU5402 at 5 μM. Individual cultures received the same growth factor cocktail with or without the addition of 10 μg/ml human recombinant insulin for all 5 days of differentiation as indicated. Samples were taken at daily intervals for analysis of gene expression using QPCR to monitor the differentiation of the populations in response to the different growth factor treatments. At the conclusion of the treatment phase the cells were fixed in 4% paraformaldehyde for 15 min at room temperature and reacted with antibodies to SOX17 or PAX6.\nHuman embryonic stem cells (CyT203) were grown in growth media on a mouse fibroblast feeder layer. On the day differentiation began, cultures were washed once with phosphate buffered saline (PBS) and then placed into differentiation media. Differentiation media consisted of RPMI with penicillin/streptomycin and Glutamax containing 0% FBS on the first day, 0.2% v/v FBS on the second day and 2% v/v FBS on days 3-5. Cultures were treated with SU5402 at 5 μM with or without the addition of human recombinant insulin at 10 μg/ml. Individual cultures received the same growth factor cocktail for all 5 days of differentiation as indicated. Samples were taken at daily intervals for analysis of gene expression using QPCR to monitor the differentiation of the populations in response to the different growth factor treatments. At the conclusion of the treatment phase the cells were fixed in 4% paraformaldehyde for 15 min at room temperature and reacted with antibodies to SOX17, OCT4 or PAX6."}, "[3]": {"conditions": "QPCR, activin A 100 ng/ml, SU5402 5 μM"}, "[4]": {"conditions": "QPCR, insulin 10 μg/ml added to growth factor treatment"}, "[5]": {"conditions": "QPCR, no insulin, continued presence of activin A 100 ng/ml"}}, "note": "Entries after “also recorded” stand apart in the source; their conditions may differ."}
{"molecule": "Cc1c[nH]c(/C=C2\\C(=O)Nc3ccccc32)c1CCC(=O)O", "note": "[SU5402, reference compound]", "values": [{"measurement": "expression of brachyury", "setting": "[1]; QPCR, no insulin, SU5402 5 μM", "value": "elevated expression"}, {"measurement": "differentiation of hESCs to initial cell fate, as indicated by marker expression", "setting": "[1]; [3]", "value": "make all available fate choices; also recorded: made all available fate choices"}, {"measurement": "expression of CDX2", "setting": "[1]; QPCR, no insulin, SU5402 5 μM", "value": "elevated expression"}, {"measurement": "expression of SOX1", "setting": "[1]; QPCR, no insulin, SU5402 5 μM", "value": "elevated expression"}, {"measurement": "expression of SOX7", "setting": "[1]; QPCR, no insulin, SU5402 5 μM", "value": "elevated expression"}]}
{"molecule": "insulin: human recombinant insulin, 10 μg/ml, signals through the PI-3-kinase pathway", "values": [{"measurement": "OCT4-positive cell numbers", "setting": "[2]; high levels of insulin present", "value": "maintenance"}, {"measurement": "number of SOX17-positive cells in response to activin A treatment", "setting": "[2]; high levels of insulin present", "value": "decrease"}, {"measurement": "number of PAX6-positive cells in response to noggin/follistatin treatment", "setting": "[2]; insulin in the media", "value": "reduced"}, {"measurement": "production of cells of each of the primary lineages", "setting": "[1]; 10 μg/ml human recombinant insulin added to the growth factor cocktail, all 5 days", "value": "significantly reduced"}, {"measurement": "expression of CDX2 in the presence of insulin", "setting": "[1]; [4]", "value": "decreased expression"}, {"measurement": "expression of PAX6 in the presence of insulin", "setting": "[1]; [4]", "value": "decreased expression"}, {"measurement": "expression of SOX1 in the presence of insulin", "setting": "[1]; [4]", "value": "decreased expression"}, {"measurement": "expression of SOX7 in the presence of insulin", "setting": "[1]; [4]", "value": "decreased expression"}, {"measurement": "expression of WNT3A in the presence of insulin", "setting": "[1]; [4]", "value": "decreased expression"}, {"measurement": "expression of brachyury in the presence of insulin", "setting": "[1]; [4]", "value": "decreased expression"}, {"measurement": "generalized differentiation under SU5402", "setting": "[1]; SU5402 5 μM plus insulin 10 μg/ml, brachyury, SOX1, SOX7, CDX2", "value": "inhibited strongly"}, {"measurement": "efficiency with which the hESCs differentiate to each of the 4 primary lineages", "setting": "[1]; high levels of insulin (10 μg/ml) in the media", "value": "decrease"}]}
{"molecule": "B1", "values": [{"measurement": "expression of brachyury", "setting": "[1]; QPCR, no insulin, SU5402 5 μM", "value": "elevated expression"}, {"measurement": "differentiation of hESCs to initial cell fate, as indicated by marker expression", "setting": "[1]; [3]", "value": "induced initial fate commitment to mesendoderm"}, {"measurement": "PAX6 mRNA", "setting": "[1]; QPCR, no insulin, activin A 100 ng/ml", "value": "induction"}, {"measurement": "expression of WNT3A", "setting": "[1]; QPCR, no insulin, activin A 100 ng/ml, at 36 and 48 hours", "value": "elevated expression"}, {"measurement": "expression of GSC", "setting": "[1]; [5]", "value": "elevated expression"}, {"measurement": "expression of SOX17", "setting": "[1]; [5]", "value": "elevated expression"}, {"measurement": "further differentiation of the mesendoderm", "setting": "[1]; continued presence of activin A 100 ng/ml, indicated by SOX17 and GSC", "value": "further differentiated to definitive endoderm"}]}
